Reference: the NIST ThermoML archive (doi:10.1021/je700261b)
Numbers after ± are expanded uncertainties.

Conditions: Liquid

CCCCO [butan-1-ol]
Conditions	mass density [kg/m3]
313.08 K, 1006 kPa	795.22 ± 0.46
313.08 K, 2017 kPa	796.08 ± 0.47
313.08 K, 3007 kPa	796.85 ± 0.47
313.08 K, 4010 kPa	797.64 ± 0.48
313.08 K, 5016 kPa	798.44 ± 0.49
313.08 K, 6017 kPa	799.22 ± 0.5
313.08 K, 7011 kPa	800 ± 0.5
313.08 K, 8006 kPa	800.77 ± 0.51
313.08 K, 9019 kPa	801.53 ± 0.52
313.08 K, 10008 kPa	802.27 ± 0.53
313.08 K, 11014 kPa	803.01 ± 0.54
313.08 K, 12016 kPa	803.73 ± 0.54
313.08 K, 13016 kPa	804.46 ± 0.55
313.08 K, 14013 kPa	805.18 ± 0.56
313.08 K, 15010 kPa	805.91 ± 0.57
313.08 K, 16003 kPa	806.58 ± 0.58
313.08 K, 16999 kPa	807.29 ± 0.59
313.08 K, 17999 kPa	807.98 ± 0.6
313.08 K, 19024 kPa	808.67 ± 0.61
313.08 K, 20005 kPa	809.33 ± 0.62
313.08 K, 21013 kPa	810.09 ± 0.62
313.08 K, 22003 kPa	810.75 ± 0.63
313.08 K, 23024 kPa	811.41 ± 0.64
313.08 K, 24027 kPa	812.09 ± 0.65
313.08 K, 24234 kPa	812.21 ± 0.65
323.05 K, 999 kPa	787.38 ± 0.46
323.05 K, 2026 kPa	788.22 ± 0.47
323.05 K, 3007 kPa	789.03 ± 0.48
323.05 K, 4024 kPa	789.91 ± 0.48
323.05 K, 5012 kPa	790.75 ± 0.49
323.05 K, 6016 kPa	791.57 ± 0.5
323.05 K, 7023 kPa	792.4 ± 0.51
323.05 K, 8004 kPa	793.16 ± 0.52
323.05 K, 9009 kPa	793.98 ± 0.53
323.05 K, 10007 kPa	794.78 ± 0.53
323.05 K, 11004 kPa	795.57 ± 0.54
323.05 K, 11995 kPa	796.32 ± 0.55
323.05 K, 13007 kPa	797.09 ± 0.56
323.05 K, 14022 kPa	797.85 ± 0.57
323.05 K, 14989 kPa	798.63 ± 0.58
323.05 K, 16006 kPa	799.33 ± 0.59
323.05 K, 16998 kPa	800.1 ± 0.6
323.05 K, 18001 kPa	800.84 ± 0.61
323.05 K, 19025 kPa	801.56 ± 0.62
323.05 K, 19993 kPa	802.28 ± 0.63
323.05 K, 21032 kPa	803.06 ± 0.64
323.05 K, 22006 kPa	803.74 ± 0.65
323.05 K, 22993 kPa	804.41 ± 0.66
323.05 K, 24012 kPa	805.16 ± 0.67
323.05 K, 24418 kPa	805.43 ± 0.67
332.93 K, 1013 kPa	779.33 ± 0.47
332.93 K, 2026 kPa	780.27 ± 0.47
332.93 K, 3014 kPa	781.21 ± 0.48
332.93 K, 4006 kPa	782.04 ± 0.49
332.93 K, 5000 kPa	782.91 ± 0.5
332.93 K, 6013 kPa	783.78 ± 0.51
332.93 K, 6997 kPa	784.6 ± 0.51
332.93 K, 8003 kPa	785.5 ± 0.52
332.93 K, 9005 kPa	786.32 ± 0.53
332.93 K, 10001 kPa	787.17 ± 0.54
332.93 K, 10996 kPa	787.97 ± 0.55
332.93 K, 12003 kPa	788.8 ± 0.56
332.93 K, 12993 kPa	789.62 ± 0.57
332.93 K, 14001 kPa	790.38 ± 0.58
332.93 K, 15016 kPa	791.22 ± 0.59
332.93 K, 15998 kPa	791.96 ± 0.6
332.93 K, 16999 kPa	792.72 ± 0.61
332.93 K, 18009 kPa	793.53 ± 0.62
332.93 K, 18986 kPa	794.29 ± 0.63
332.93 K, 20043 kPa	795.08 ± 0.64
332.93 K, 21056 kPa	795.87 ± 0.65
332.93 K, 22040 kPa	796.59 ± 0.66
332.93 K, 23009 kPa	797.3 ± 0.67
332.93 K, 24001 kPa	798.04 ± 0.68
332.93 K, 24515 kPa	798.46 ± 0.68
342.86 K, 1026 kPa	770.92 ± 0.47
342.86 K, 2007 kPa	771.87 ± 0.48
342.86 K, 3003 kPa	772.85 ± 0.49
342.86 K, 4051 kPa	773.84 ± 0.49
342.86 K, 5008 kPa	774.72 ± 0.5
342.86 K, 6023 kPa	775.59 ± 0.51
342.86 K, 7010 kPa	776.55 ± 0.52
342.86 K, 8000 kPa	777.42 ± 0.53
342.86 K, 9001 kPa	778.28 ± 0.54
342.86 K, 10005 kPa	779.2 ± 0.55
342.86 K, 11006 kPa	780.06 ± 0.56
342.86 K, 12010 kPa	780.9 ± 0.57
342.86 K, 13033 kPa	781.77 ± 0.58
342.86 K, 14017 kPa	782.62 ± 0.59
342.86 K, 15001 kPa	783.45 ± 0.6
342.86 K, 16009 kPa	784.29 ± 0.61
342.86 K, 17016 kPa	785.14 ± 0.62
342.86 K, 17991 kPa	785.93 ± 0.63
342.86 K, 19023 kPa	786.79 ± 0.64
342.86 K, 19999 kPa	787.57 ± 0.65
342.86 K, 21000 kPa	788.37 ± 0.66
342.86 K, 22003 kPa	789.15 ± 0.67
342.86 K, 22989 kPa	789.91 ± 0.68
342.86 K, 24004 kPa	790.69 ± 0.69
342.86 K, 24621 kPa	791.2 ± 0.7
352.79 K, 1020 kPa	762.66 ± 0.47
352.79 K, 2014 kPa	763.68 ± 0.48
352.79 K, 3007 kPa	764.68 ± 0.49
352.79 K, 3998 kPa	765.67 ± 0.5
352.79 K, 4998 kPa	766.69 ± 0.51
352.79 K, 5997 kPa	767.68 ± 0.52
352.79 K, 7006 kPa	768.64 ± 0.53
352.79 K, 8005 kPa	769.61 ± 0.54
352.79 K, 9007 kPa	770.53 ± 0.55
352.79 K, 9997 kPa	771.44 ± 0.56
352.79 K, 11008 kPa	772.38 ± 0.57
352.79 K, 12000 kPa	773.26 ± 0.58
352.79 K, 13043 kPa	774.22 ± 0.59
352.79 K, 14002 kPa	775.11 ± 0.6
352.79 K, 15000 kPa	775.98 ± 0.61
352.79 K, 16000 kPa	776.85 ± 0.62
352.79 K, 16992 kPa	777.72 ± 0.63
352.79 K, 17988 kPa	778.56 ± 0.64
352.79 K, 18994 kPa	779.41 ± 0.65
352.79 K, 20012 kPa	780.22 ± 0.66
352.79 K, 21003 kPa	781.04 ± 0.67
352.79 K, 22010 kPa	781.87 ± 0.69
352.79 K, 22971 kPa	782.68 ± 0.7
352.79 K, 24021 kPa	783.49 ± 0.71
352.79 K, 24573 kPa	783.95 ± 0.71
362.67 K, 1043 kPa	753.5 ± 0.48
362.67 K, 2116 kPa	754.77 ± 0.49
362.67 K, 3026 kPa	755.74 ± 0.5
362.67 K, 4013 kPa	756.82 ± 0.5
362.67 K, 5024 kPa	757.87 ± 0.51
362.67 K, 6047 kPa	758.93 ± 0.52
362.67 K, 7014 kPa	759.93 ± 0.53
362.67 K, 8012 kPa	760.98 ± 0.54
362.67 K, 9025 kPa	762.03 ± 0.56
362.67 K, 10015 kPa	762.94 ± 0.57
362.67 K, 11002 kPa	763.92 ± 0.58
362.67 K, 12002 kPa	764.89 ± 0.59
362.67 K, 13011 kPa	765.86 ± 0.6
362.67 K, 14011 kPa	766.84 ± 0.61
362.67 K, 15014 kPa	767.7 ± 0.62
362.67 K, 16006 kPa	768.67 ± 0.63
362.67 K, 17009 kPa	769.58 ± 0.64
362.67 K, 18008 kPa	770.48 ± 0.65
362.67 K, 18993 kPa	771.37 ± 0.67
362.67 K, 19990 kPa	772.21 ± 0.68
362.67 K, 21007 kPa	773.1 ± 0.69
362.67 K, 21997 kPa	773.96 ± 0.7
362.67 K, 23014 kPa	774.89 ± 0.71
362.67 K, 24000 kPa	775.58 ± 0.72
362.67 K, 24563 kPa	776.12 ± 0.73
